Results as given in US6365570B1, “Pharmaceutical and diagnostic use of Serum Amyloid P component” (priority 1999, dated 2002).
“Also recorded” adds a separate entry of the source.

Experiments:
[1] = biological target: binding of LPS to monocytes; assay: Inhibition of FITC-LPS binding to monocytes (flow cytometry); assay type: cell-based, human; settings: for IC50: FITC-LPS 2.5 ng/ml, 30 ng/ml recombinant LBP, mononuclear cells of healthy volunteers, 30 minutes at 37° C., read-out: 50% inhibition concentration; for inhibition of binding of LPS to monocytes (in words): FITC-LPS binding to monocytes in vitro, FIG. 2 / FIG. 4
Protocol: 2.1 Materials and method LPS of Salmonella Re595 (ReLPS, supra) is labelled with FITC (Sigma; F7250) under conditions in which LPS is present as monomer, resulting in a FITC-LPS preparation with a ratio of 1 molecule FITC per molecule PLS. After extension desalting and dialysis against PBS, the stock solution of FITC-LPS is stored at −20° C. Mononuclear leukocytes (monocytes and lymphocytes) are isolated from heparin blood of healthy volunteers via a Ficol (Pharmacial) gradient in accordance with a standard method. After washing the cells are resuspended in isotonic HEPES buffer (with 1 mM CalCl2 and 2% BSA). Preparations with SAP are mixed with FITC-LPS and subsequently added to 3×10^5 mononuclear cells and 30 ng/ml recombinant LSP (obtained from Dr. Lichtenstein) in a total volume of 50 μl and a FITC-LPS concentration of 2.5 ng/ml. After an incubating period of 30 minutes at 37° C., the samples are stored on ice. Analysis of monocyte-associated FITC-LPS binding takes place with PAC Scan™ Flow cytometer. Forward and Sideward Scatter parameters are used to identify the monocyte population. With LysisII™ software (Beckton & Dickinson) the average fluorescence value of 5000 monocytes is calculated. See also Weersing A. J. L. et al., J. Immunol. 145, 318-324 (1990)).
3.1 Materials and method The test was performed in the same manner as described in example 2. However, SAP fragments (peptides) were used instead of SAP. The amino acid composition of the tested peptides is shown in table 2, as well as the concentration at which 50% inhibition occurs.

[2] = tested on: LPS priming of neutrophils; assay: Inhibition of LPS priming of neutrophils (fMLP/luminol luminescence); assay type: cell-based, human; settings: 1 ng/ml ReLPS, 30 ng/ml r-LBP, 30 minutes at 37° C., fMLP stimulus, FIG. 3
Description: 4.1 Materials and method Neutrophils are isolated from heparin blood of healthy volunteers via a Histopaque-Picoll gradient in accordance with a standard method (Van Amerafoort, E. S. & J. A. G. van Strijp, Cytometry 17, 294-301 (1994). The remaining erythrocytes in the neutrophil fraction are lysed with sterile water (for 30 seconds) and, after reinstatement of the isotonicity, the fraction is washed. The cells are finally inserted (suspended) in HGSS+2% Human Serum Albumin (HSA). Cells (1×10^4) are incubated with 1 ng/ml ReLPS, 30 ng/ml recombinant LPS-binding protein (r-LPS) and a sample SAP in a total volume of 100 μl for 30 minutes at 37° C. The samples are subsequently placed in a luminometer (Berthold; Autolumat LB953), whereafter via automatic injection luminol (180 μM) and 1 μM fMLP (formylmethyonyl-leucyl-phenylalanine) are added as stimulus to each tube. The luminescence response is measured continuously for 15 minutes and the results expressed as total luminescence response (area under the graph). See also Weersink et al., Immunology 83, 617-623 (1994).

LPS of Salmonella Re595 = assay: Binding to LPS-Beads, SDS-PAGE analysis; settings: FIG. 1A and 1B, serum pre-incubated with free ReLPS
Protocol: 1.1 Materials and method A 1 mg/ml solution of LPS of Salmonella Re595 (Sigma; L9764) in carbonate buffer (0.1 M, pH 9.5) is incubated for 24 hours with 5×10^7 DynaBeads™ (M450, Dynal A. S., Oslo, Norway) activated with Tosyl. The beads loaded with LPS are washed 3x and stored in HBSS+0.1% Na-azide (5×10^7 b/ml). A 10% dilution (1 to 10 dilution) of serum of healthy volunteers is mixed with 5×10^6 LPS-Beads for 30 minutes at 22° C. The serum has optionally been incubated before hand with different concentrations of free LPS. The beads are washed 3x with HBSS (Gibco BRL, Gaithersburg, Md., US) and subsequently resuspended in 25 μl SDS-PAGE sample buffer (with 2% SDS and 2.5% DTT). After boiling for 3 minutes at 100° C. the sample is analyzed on a 12.5% SDS-PAGE (Mini-ProteanII; Bio-Rad). The proteins present are stained with Coomassie Blue. A sample with Marker proteins of known sizes (Bio-Rad) serves as reference. For identification the proteins are transferred after SDS-PAGE to nitrocellulose paper by means of a Mini Trans-Blotter™. The proteins are stained with Coomassie Blue, and the protein around 30 kDa is […] and dissolved in buffer. The sequence of this sample is determined. SAP is isolated from normal human serum by making use of the Ca-dependent binding to Sepharose. […]

Row | Substance | IC50 [1] [µM] | inhibition of binding of LPS to monocytes (in words) [1] | activation (priming) of neutrophils by LPS [2] | binding to LPS-Beads / free LPS (LPS of Salmonella Re595)
1 | SAP fragment, amino acids 27-34: Glu Lys Pro Leu Gln Asn Phe Thr, SEQ ID NO 8 (EKPLQNFT; Fragment of the Serum Amyloid P component, peptide 27-34) [PEP 27-34] | > 106 |  |  | 
2 | SAP fragment, amino acids 27-39: Glu Lys Pro Leu Gln Asn Phe Thr Leu Cys Phe Arg Ala, SEQ ID NO 1 (EKPLQNFTLCFRA; Fragment of the Serum Amyloid P component, peptides 27-39; listed as Homo sapiens) [PEP 27-39] | 0.1 | very good activity |  | 
3 | SAP fragment, amino acids 28-35: Lys Pro Leu Gln Asn Phe Thr Leu, SEQ ID NO 7 (KPLQNFTL; Fragment of the Serum Amyloid P component, peptide 28-35) [PEP 28-35] | > 100 |  |  | 
4 | SAP fragment, amino acids 29-36: Pro Leu Gln Asn Phe Thr Leu Cys, SEQ ID NO 5 (PLQNFTLC; Fragment of the Serum Amyloid P component, peptide 29-36) [PEP 29-36] | 6.5 | acceptable activity |  | 
5 | SAP fragment, amino acids 30-37: Leu Gln Asn Phe Thr Leu Cys Phe, SEQ ID NO 4 (LQNFTLCF; Fragment of the Serum Amyloid P component, peptide 30-37) [PEP 30-37] | 4.5 | acceptable activity |  | 
6 | SAP fragment, amino acids 32-39: Asn Phe Thr Leu Cys Phe Arg Ala, SEQ ID NO 3 (NFTLCFRA; Fragment of the Serum Amyloid P component, peptides 32-39) [PEP 32-39] | 2 | acceptable activity |  | 
7 | SAP fragment, amino acids 33-38: Phe Thr Leu Cys Phe Arg, SEQ ID NO 2 (FTLCFR; Fragment of the Serum Amyloid P component, peptides 33-38) [PEP 33-38] |  | acceptable activity |  | 
8 | Serum Amyloid P component [SAP] | 0.05 | concentration-dependent inhibition | greatly reduced | capable of binding with free LPS; also recorded: binds to the LPS-Beads
